Measurements: patent EP0292170A2, “Enzyme immunoassay” (Bayer Corporation, priority 1987, dated 1988)

System: antibody to phenytoin
Experiment: Immunoreactivity: conjugate activity in the phosphorylase kinase reaction mixture in the presence of monoclonal antibody to phenytoin
Type: biochemical
Conditions: same reaction mixture, antibody added

## Nc1ncnc2c1ncn2[C@@H]1O[C@H](COP(=O)(O)OP(=O)(O)OP(=O)(O)O)[C@@H](O)[C@H]1O [ATP, adenosine triphosphate]
  inhibition of activity by antibody: No inhibition
